A word on the % Inhibition: it is how much of the control response was suppressed. Higher therefore signals a response far below the control.

Strand notation (5' to 3'): a small letter for the sugar, then the base; units joined by * are phosphorothioate-linked, units joined directly phosphodiester-linked; [ ] holds rarer units or linkages, { } end groups; capitals alone tell only the bases. e = 2'-O-(2-methoxyethyl) (MOE); [5mC] = 5-methylcytosine; d = 2'-deoxy (DNA)

One data set relates to human Factor 7 mRNA. Kind of data set: Antisense inhibition of human Factor 7 mRNA in HepB3 cells, 50 nM antisense oligonucleotide, lipofectin. It is filed as cell-based. Particulars: Table 1, 50 nM, lipofectin, approximately 24 hours, relative to untreated control cells. Summed up:
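HepB3 cells were transfected by lipofectin with 50 nM antisense oligonucleotide and harvested after about 24 h. Factor 7 mRNA was measured by real-time RT-PCR (primer probe set RTS 2927 in some runs), normalized to RIBOGREEN total RNA, and reported as percent inhibition versus untreated control.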
“407962 (antisense eT*eT*eG*eG*eA*dA*dG*d[5mC]*dA*dG*d[5mC]*d[5mC]*d[5mC]*dA*d[5mC]*eG*eG*e[5mC]*eT*eG) [compound 407962]”: the “% Inhibition” value amounted to 41%.
As to “407963 (antisense eA*eG*eA*eG*e[5mC]*dA*dG*dG*dG*dT*dG*d[5mC]*d[5mC]*dT*dT*eG*eG*eA*eA*eG) [compound 407963]”, the “% Inhibition” value was determined as 33%.

The data set is the same for the next values; noted with them: lipofectin, 50 nM antisense oligonucleotide, approximately 24 hours, Factor 7 mRNA by real-time RT-PCR (RTS 2927), relative to untreated control.
For “416422 (antisense eA*eG*e[5mC]*eG*eA*d[5mC]*d[5mC]*d[5mC]*d[5mC]*dG*d[5mC]*d[5mC]*dT*dG*d[5mC]*eA*eG*e[5mC]*e[5mC]*eA) [compound 416422]”, the “% Inhibition” value is on record as 8%.
Same read-out and setting: the same measure for “416423 (antisense eG*eT*eG*eT*eT*dT*d[5mC]*dT*d[5mC]*d[5mC]*dT*d[5mC]*d[5mC]*dT*dG*eA*eG*eG*e[5mC]*e[5mC]) [compound 416423]”: 51%.
Regarding “416424 (antisense eG*eA*eG*eA*e[5mC]*d[5mC]*dA*dT*dG*dA*dT*dG*dA*dA*dA*eT*e[5mC]*eT*e[5mC]*eT) [compound 416424]”, the “% Inhibition” value amounted to 27%.
On the same count and under the same terms, with “416425 (antisense eA*eA*eG*e[5mC]*eA*dG*dA*dA*dG*dG*d[5mC]*dA*dG*dA*dG*eG*eA*eG*e[5mC]*e[5mC]) [compound 416425]” the figure was 13%.
As to “416426 (antisense eA*eG*e[5mC]*e[5mC]*e[5mC]*dA*dA*dG*d[5mC]*dA*dG*dA*dA*dG*dG*e[5mC]*eA*eG*eA*eG) [compound 416426]”, the “% Inhibition” value was found to be 34%.
With “416427 (antisense e[5mC]*e[5mC]*e[5mC]*eT*eG*dA*dA*dG*d[5mC]*d[5mC]*d[5mC]*dA*dA*dG*d[5mC]*eA*eG*eA*eA*eG) [compound 416427]”, the “% Inhibition” value turned out to be 5%.
With “416428 (antisense e[5mC]*eT*eG*eG*eG*dT*dT*dA*d[5mC]*dG*dA*dA*dG*dA*d[5mC]*eT*eG*e[5mC]*eA*eG) [compound 416428]”, the “% Inhibition” value is 11%.
Turning to “416429 (antisense eA*e[5mC]*eG*e[5mC]*e[5mC]*dG*dT*dG*dG*dG*d[5mC]*dT*dT*d[5mC]*d[5mC]*eT*e[5mC]*e[5mC]*eT*eG) [compound 416429]”, the “% Inhibition” value stood at 47%.
Consider “416430 (antisense eG*e[5mC]*eA*eG*e[5mC]*dT*d[5mC]*d[5mC]*dT*d[5mC]*d[5mC]*dA*dG*dG*dA*eA*e[5mC]*eG*e[5mC]*eG) [compound 416430]”, for which the “% Inhibition” value was 52%.
Same read-out and setting: the same measure for “416431 (antisense eA*eG*eG*eG*eA*dG*d[5mC]*d[5mC]*d[5mC]*dG*dG*d[5mC]*d[5mC]*dG*d[5mC]*eA*eG*e[5mC]*eT*e[5mC]) [compound 416431]”: 25%; for “416432 (antisense eA*eG*e[5mC]*eA*e[5mC]*dT*dG*d[5mC]*dT*d[5mC]*d[5mC]*dT*d[5mC]*d[5mC]*dT*eT*eG*e[5mC]*eA*e[5mC]) [compound 416432]”: 44%.
The same measure, in the same setting: with “416433 (antisense eA*eG*eA*eA*eA*dT*d[5mC]*d[5mC]*dA*dG*dA*dA*d[5mC]*dA*dG*e[5mC]*eT*eT*e[5mC]*eG) [compound 416433]” the figure was 0%.
Turning to “416434 (antisense e[5mC]*eT*eG*eT*eA*dA*dG*dA*dA*dA*dT*d[5mC]*d[5mC]*dA*dG*eA*eA*e[5mC]*eA*eG) [compound 416434]”, the “% Inhibition” value stood at 0%.
The same measure, in the same setting: the same measure for “416435 (antisense e[5mC]*e[5mC]*e[5mC]*eA*eT*d[5mC]*dA*d[5mC]*dT*dG*dT*dA*dA*dG*dA*eA*eA*eT*e[5mC]*e[5mC]) [compound 416435]”: 3%.
On the same count and under the same terms, the same measure for “416436 (antisense eA*e[5mC]*eT*eG*eG*dT*d[5mC]*d[5mC]*d[5mC]*d[5mC]*dA*dT*d[5mC]*dA*d[5mC]*eT*eG*eT*eA*eA) [compound 416436]”: 27%; for “416437 (antisense eA*eG*eG*e[5mC]*eA*d[5mC]*dA*d[5mC]*dT*dG*dG*dT*d[5mC]*d[5mC]*d[5mC]*e[5mC]*eA*eT*e[5mC]*eA) [compound 416437]”: 52%; for “416439 (antisense eG*eT*e[5mC]*e[5mC]*eT*dT*dG*d[5mC]*dA*dG*dG*dA*dG*d[5mC]*d[5mC]*e[5mC]*e[5mC]*e[5mC]*eA*eT) [compound 416439]”: 56%.
For the substance “416440 (antisense eG*eG*eA*e[5mC]*eT*dG*dG*dA*dG*d[5mC]*dT*dG*dG*dT*d[5mC]*e[5mC]*eT*eT*eG*e[5mC]) [compound 416440]”, the “% Inhibition” value came to 44%.
Take “416441 (antisense eA*eG*eA*eT*eA*dT*dA*dG*dG*dA*d[5mC]*dT*dG*dG*dA*eG*e[5mC]*eT*eG*eG) [compound 416441]”: the “% Inhibition” value was 32%.
Still for that read-out and setting: the same measure for “416442 (antisense eA*eG*e[5mC]*eA*eG*dA*dT*dA*dT*dA*dG*dG*dA*d[5mC]*dT*eG*eG*eA*eG*e[5mC]) [compound 416442]”: 57%; for “416443 (antisense eG*eA*eG*eG*e[5mC]*dA*dG*dA*dA*dG*d[5mC]*dA*dG*dA*dT*eA*eT*eA*eG*eG) [compound 416443]”: 17%.
The same measure, in the same setting: with “416444 (antisense eA*e[5mC]*eA*eG*eT*dT*d[5mC]*d[5mC]*dG*dG*d[5mC]*d[5mC]*d[5mC]*dT*d[5mC]*eG*eA*eA*eG*eG) [compound 416444]” the figure was 24%; with “416445 (antisense eT*eA*e[5mC]*eT*eG*d[5mC]*dT*d[5mC]*dA*d[5mC]*dA*dG*d[5mC]*d[5mC]*dG*e[5mC]*e[5mC]*eG*eT*eT) [compound 416445]”, 57%.
On the same count and under the same terms, with “416447 (antisense e[5mC]*eA*eT*eG*eG*dA*dT*dA*dT*dT*d[5mC]*dA*dA*d[5mC]*dT*eG*eT*eG*eG*eG) [compound 416447]” the figure was 17%.
As for “416448 (antisense eT*eT*eT*eT*eT*d[5mC]*d[5mC]*dA*d[5mC]*dA*dT*dG*dG*dA*dT*eA*eT*eT*e[5mC]*eA) [compound 416448]”, the “% Inhibition” value is 34%.
Still for that read-out and setting: with “416450 (antisense eG*eG*eT*eT*eT*dG*d[5mC]*dT*dG*dG*d[5mC]*dA*dT*dT*dT*e[5mC]*eT*eT*eT*eT) [compound 416450]” the figure was 49%.
Still for that read-out and setting: the same measure for “416451 (antisense eG*e[5mC]*e[5mC]*eA*eT*dG*dG*dA*d[5mC]*dA*d[5mC]*dT*d[5mC]*d[5mC]*d[5mC]*e[5mC]*eT*eT*eT*eG) [compound 416451]”: 75%.
Consider “416452 (antisense e[5mC]*e[5mC]*eA*eA*e[5mC]*dA*dA*d[5mC]*dA*dG*dG*dA*d[5mC]*d[5mC]*dT*eG*e[5mC]*e[5mC]*eA*eT) [compound 416452]”, for which the “% Inhibition” value turned out to be 19%.
Take “416453 (antisense eG*eA*eT*eT*eT*dT*dG*dT*d[5mC]*dG*dA*dA*dA*d[5mC]*dA*eG*eT*eG*eG*eG) [compound 416453]”: the “% Inhibition” value came out at 45%.
Same read-out and setting: with “416454 (antisense e[5mC]*eG*eT*eG*e[5mC]*dT*d[5mC]*dG*d[5mC]*d[5mC]*d[5mC]*dA*dG*d[5mC]*dA*e[5mC]*e[5mC]*eG*e[5mC]*eG) [compound 416454]” the figure was 56%; with “416456 (antisense e[5mC]*eT*eG*e[5mC]*eG*d[5mC]*d[5mC]*dA*d[5mC]*d[5mC]*d[5mC]*dG*d[5mC]*d[5mC]*dG*eG*e[5mC]*eT*e[5mC]*eT) [compound 416456]”, 58%; with “416457 (antisense eG*eG*eA*eT*eG*dA*dT*dG*dA*d[5mC]*d[5mC]*dT*dG*d[5mC]*dG*e[5mC]*e[5mC]*eA*e[5mC]*e[5mC]) [compound 416457]”, 48%.
Still for that read-out and setting: with “416458 (antisense eG*eG*e[5mC]*eG*eG*dA*dG*d[5mC]*dA*dG*d[5mC]*dG*d[5mC]*dG*dA*eT*eG*eT*e[5mC]*eG) [compound 416458]” the figure was 29%; with “416459 (antisense eT*eG*eG*eT*e[5mC]*dA*dG*dT*dG*dA*dG*dG*dA*d[5mC]*d[5mC]*eA*e[5mC]*eG*eG*eG) [compound 416459]”, 23%; with “416460 (antisense e[5mC]*eA*e[5mC]*e[5mC]*eA*d[5mC]*dA*dT*dG*dG*dT*d[5mC]*dA*dG*dT*eG*eA*eG*eG*eA) [compound 416460]”, 49%.
Regarding “416461 (antisense eG*eA*eA*eG*e[5mC]*dG*d[5mC]*dA*d[5mC]*dG*dA*dA*dG*dG*d[5mC]*e[5mC]*eA*eG*e[5mC]*eG) [compound 416461]”, the “% Inhibition” value amounted to 43%.
On the same count and under the same terms, with “416462 (antisense eG*eG*e[5mC]*eA*eG*dT*d[5mC]*d[5mC]*dT*dG*dG*dG*dT*d[5mC]*dA*eT*e[5mC]*eA*eG*e[5mC]) [compound 416462]” the figure was 60%.
Turning to “416463 (antisense eT*eG*e[5mC]*eT*eG*d[5mC]*dA*dG*dG*d[5mC]*dA*dG*dT*d[5mC]*d[5mC]*eT*eG*eG*eG*eT) [compound 416463]”, the “% Inhibition” value amounted to 39%.
On the same count and under the same terms, the same measure for “416464 (antisense eA*eA*e[5mC]*eA*eT*dG*dT*dA*d[5mC]*dT*d[5mC]*d[5mC]*dG*dT*dG*eA*eT*eA*eT*eT) [compound 416464]”: 53%; for “416465 (antisense e[5mC]*eA*e[5mC]*eT*eG*dT*d[5mC]*d[5mC]*d[5mC]*d[5mC]*d[5mC]*dT*dT*dG*d[5mC]*eA*eG*eG*eA*eG) [compound 416465]”: 51%.
On the same count and under the same terms, the same measure for “416466 (antisense eT*eG*eT*eG*eG*dG*d[5mC]*d[5mC]*dT*d[5mC]*d[5mC]*dA*d[5mC]*dT*dG*eT*e[5mC]*e[5mC]*e[5mC]*e[5mC]) [compound 416466]”: 57%.

The same data set, now with this note: oligonucleotides targeted to nucleobases 13760 to 13789 of SEQ ID NO: 1 (Table 10).
On to “416456 (antisense e[5mC]*eT*eG*e[5mC]*eG*d[5mC]*d[5mC]*dA*d[5mC]*d[5mC]*d[5mC]*dG*d[5mC]*d[5mC]*dG*eG*e[5mC]*eT*e[5mC]*eT) [compound 416456]”, for which the “% Inhibition (human Factor 7 mRNA levels)” value was 50%.

(Values after US9029337B2, “Modulation of factor 7 expression” (Isis Pharmaceuticals, Inc., priority 2007, dated 2015).)
